14 compounds from patent publication US10428071B2, “Carboline derivative serving as bromodomain inhibitor” (NINGBO WENDA PHARMA TECHNOLOY LTD., priority 2016, dated 2019) can be followed below.

One assay concerns H211 cell line. Put plainly: Cell activity detection, Alamar-Blue, H211. It is filed as cell-based. Particulars: Homo sapiens, NCI-H211, 72 h incubation. The procedure: (§1) H211 and H187 cell lines were purchased from ATCC and tested in accordance with the Alamar-Blue test kit instructions. The drugs were dissolved in 50 mM stock solution with DMSO and stored in a freezer at −20° C. The test drug stock solution was serially diluted with DMSO graded in a ratio of 1:3. Then DMSO diluted drug was serially diluted into a drug solution in 10× final concentration with cell complete culture medium. The 96-well cell culture plate was removed from the incubator, and 10 μl of culture medium containing a series of different concentrations of drug (10× final concentration) was added to a 96-well plate, and incubated at 37° C. for 72 h in CO2 incubator. The inhibition rate was plotted using GraphPad Prism 5.0 and MATILAB software by a non-linear regression method to obtain a series of dose-response curves from which the IC50 of the test sample was obtained, Table 2.

The test system of another assay is H187 cell line. Put plainly: Cell activity detection, Alamar-Blue, H187. In kind it is cell-based. The conditions noted are these: Homo sapiens, NCI-H187, 72 h incubation. The procedure:
as §1
(In general: The colour change of resazurin is a common sign of viable cells or microbes.)

Assay [1] has as its target T1, BRD4 (BD1+BD2) bromodomain protein (Homo sapiens, UniProt O60885).
T1 construct: BRD4 (BD1+BD2) bromodomain protein; purchased Cayman
Put plainly: TR-FRET BRD4 activity assay (Cayman kit). It is filed as binding. Particulars: room temperature 2 hours. The method, then: Detection of TR-FRET BRD4 Activity:
The BRD4 activity assay was performed according to the TR-FRET method in the Cayman kit. Dilute 3×BRD TR-FRET Assay Buffer 1 with ultrapure water to 1×BRD TR-FRET Assay Buffer for further use. 1×BRD TR-FRET Assay Buffer was used to dilute Tb-labeled donor and dye-labeled acceptor in 100-fold. 5 μl of diluted Tb-labeled donor and dye-labeled acceptor were added respectively to the sample well, negative control well and positive control well. The configured 1×BRD TR-FRET Assay Buffer was used to formulate a 10% DMSO solution (excessive DMSO concentration would affect the reaction, and the final concentration of DMSO was controlled at 1%), then test compounds are diluted with 10% DMSO solution to give the compound's initial concentrations of 1 μM and 100 nM, IC50 test was started from 10 μM or 100 μM, diluted in 3-fold to give 8 or 10 concentration points. In addition to the control wells, 2 μl of the diluted test compound solution was added to the wells used, and 2 μl of the previously prepared 10% DMSO solution was added to the control wells. The BET Bromodomain Ligand and Non-acetylated Ligand 1 were respectively diluted in 40 fold with 1×BRD TR-FRET Assay Buffer. 5 μl of diluted BET Bromodomain Ligand was added to sample wells and positive control wells, and 5 μl of diluted non-acetylated ligand 1 was added into the negative control wells. 1×BRD TR-FRET Assay Buffer was used to dilute BRD4 (BD1+BD2) bromodomain protein to 6 ng/μl (18 ng/well), and 3 μl of diluted BRD4 (BD1+BD2) bromodomain protein was added to each well. The plate was sealed and mixed well. The reaction was performed at room temperature for 2 hours, and then fluorescence signals (320 nm stimulation, 665 nm, 615 nm emission) were detected with the ENVISION (Perkinelmer) instrument. The inhibition rate was calculated for each well by positive control wells and negative control wells, and average value was calculated for multiple wells. The results were plotted with Software PRISM 5.0 to fit the half inhibitory activity (IC50) for each test compound, Table 1.
Background: Time-resolved FRET reads energy transfer from a long-lived donor to a nearby acceptor.

The test system of a further assay is MDA-MB-231 cell line. The assay is described as follows: Cell activity detection, CCK-8, MDA-MB-231. It is filed as cell-based. Particulars: Homo sapiens, CCK-8, 72 hours incubation. The method, then:
MDA-MB-231 cell line was purchased from Shanghai Cell Resource Center of the Chinese Academy of Sciences, and was performed according to the method in the kit of CCK-8. The cells in the logarithmic growth phase were collected, counted, and the cells were re-suspended in complete medium to adjust the cell concentration to a suitable concentration (determined according to cell density optimization test results), inoculated in 96-well plates, and each well was added with 100 μl of cell suspension. Cells were incubated at 37° C., in a 100% relative humidity and 5% CO2 incubator for 24 hours. The compound was diluted to the appropriate effective concentration determined with medium and the cells were added by 25 μl/well. The final concentration of the compound was diluted to from 1 μM to 0 μM graded in three-fold dilution to give 10 concentration points. The cells were incubated at 37° C., in a 100% relative humidity and 5% CO2 incubator for 72 hours. 1/10 volume of CCK-8 was added directly to the cell culture medium and incubated in a 37° C. incubator for 2-4 hours. The absorbance at 450 nm was determined on a SpectraMax M5 Microplate Reader after gentle shaking. Absorbance at 650 nm was taken as the reference. The IC50 curve fitting was performed using soft Graphpad Prism 5 and the IC50 value was calculated.

For `Cc1nnn(C)c1-c1cnc2c3c4cccnc4ccc3n([C@H](c3ccccc3)C3CCOCC3)c2c1` [Compound 12], the concentration for half-maximal inhibition (IC50) in the assay on H211 cell line was 12 nM; in the assay with H187 cell line, 7.5 nM; in assay [1], 3.2 nM.
Turning to `Cc1nnn(C)c1-c1cnc2c3c4cnn(C)c4ccc3n([C@H](c3ccccc3)C3CCOCC3)c2c1` [Compound 6], the 50% inhibitory concentration (IC50) in the assay on H211 cell line is 2 nM; in the assay with MDA-MB-231 cell line, 1.6 nM; in the assay with H187 cell line, 5.5 nM; in assay [1], 1 nM.
Turning to `Cc1nnn(C)c1-c1cnc2c3cc4c(cc3n([C@H](c3ccccc3)C3CCOCC3)c2c1)CN(C)C4=O` [Compound 2], the half-inhibitory concentration (IC50) in the assay with H211 cell line is 8.5 nM; in the assay with H187 cell line it was 19 nM; in assay [1] it was 2.2 nM.
The corresponding values for `Cc1nnn(C)c1-c1cnc2c3c4ccn(C)c4ccc3n([C@H](c3ccccc3)C3CCOCC3)c2c1` [Compound 9] are 6.7 nM, 7 nM and 3.5 nM.
In the case of `[2H]C([2H])([2H])c1nnn(C)c1-c1cnc2c3c4cnn(C)c4ccc3n([C@H](c3ccccc3)C3CCOCC3)c2c1` [Compound 13], the IC50 with H211 cell line turned out to be 2 nM; in the assay on MDA-MB-231 cell line, 1.8 nM; with H187 cell line it was 5.5 nM; in assay [1], 1 nM.
As to `Cc1nnn(C)c1-c1cnc2c3c4cc[nH]c4ccc3n([C@H](c3ccccc3)C3CCOCC3)c2c1` [Compound 10], the concentration for half-maximal inhibition (IC50) in the assay with H211 cell line came out at 32 nM; in the assay with MDA-MB-231 cell line, 8.1 nM; in the assay with H187 cell line, 8.5 nM; in assay [1] it was 1.5 nM.
Consider `Cc1nnn(C)c1-c1cnc2c3cc4c(cnn4C)cc3n([C@H](c3ccccc3)C3CCOCC3)c2c1` [Compound 4], for which the half-maximal inhibitory concentration (IC50) came out at 11.2 nM with H211 cell line, 37 nM in the assay with H187 cell line and 4.6 nM in assay [1].
For `[2H]C([2H])([2H])c1nnn(C)c1-c1cnc2c3c4cn[nH]c4ccc3n([C@H](c3ccccc3)C3CCOCC3)c2c1` [Compound 14], the concentration for half-maximal inhibition (IC50) was found to be 4 nM in the assay on H211 cell line, 3.5 nM in the assay on MDA-MB-231 cell line, 5.5 nM in the assay on H187 cell line and 1 nM in assay [1].
The corresponding values for `Cc1nnn(C)c1-c1cnc2c3c4c(ccc3n([C@H](c3ccccc3)C3CCOCC3)c2c1)cnn4C` [Compound 7] are 3.5 nM, 4.6 nM, 6.5 nM and 5.2 nM.
In the same order, the values of `Cc1nnn(C)c1-c1cnc2c3c4cnn(C)c4c(F)cc3n([C@H](c3ccccc3)C3CCOCC3)c2c1` [Compound 8] are 4.2 nM, 3.2 nM, 6.5 nM and 2.6 nM.
Consider `Cc1nnn(C)c1-c1cnc2c3c4c(ccc3n([C@H](c3ccccc3)C3CCOCC3)c2c1)C(=O)N(C)C4` [Compound 3], for which the IC50 amounted to 5.2 nM in the assay with H211 cell line, 35 nM in the assay on H187 cell line and 1.9 nM in assay [1].
The corresponding values for `Cc1nnn(C)c1-c1cnc2c3cc4c(cc3n([C@H](c3ccccc3)C3CCOCC3)c2c1)C(=O)N(C)C4` [Compound 1] are 7.2 nM, 21 nM and 3.6 nM.
Take `Cc1nnn(C)c1-c1cnc2c3cc4cnn(C)c4cc3n([C@H](c3ccccc3)C3CCOCC3)c2c1` [Compound 5]: the half-maximal inhibitory concentration (IC50) in the assay on H211 cell line came out at 29.5 nM; in the assay with H187 cell line, 35 nM; in assay [1] it was 3.8 nM.
Take `Cc1nnn(C)c1-c1cnc2c3c4cn[nH]c4ccc3n([C@H](c3ccccc3)C3CCOCC3)c2c1` [Compound 11]: the concentration for half-maximal inhibition (IC50) in the assay with H211 cell line is 4.2 nM; in the assay on MDA-MB-231 cell line, 3.7 nM; in the assay with H187 cell line, 5.5 nM; in assay [1], 1 nM.

As a reminder, the IC50 is the point on the concentration scale where inhibition reaches its midpoint. Lower therefore signals higher potency.
